Assay results taken from the NIST ThermoML archive (doi:10.1021/je060146z).
Numbers after ± are expanded uncertainties.

Details: Crystal

Row | Structure (SMILES) | Normal melting temperature [°C]
1 | CCCCCCCCCCCCCC(=O)O [tetradecanoic acid] | 54.33 ± 1.2
2 | CCCCCCCCCCCCCCCC(=O)O [hexadecanoic acid] | 62.29 ± 1.2
3 | CCCCCCCCCC(=O)O [decanoic acid] | 31.27 ± 1.2
4 | CCCCCCCCCCCC(=O)O [dodecanoic acid] | 43.79 ± 1.2
5 | CCCCCCCCCCCCCCCCCC(=O)O [octadecanoic acid] | 68.76 ± 1.2
